Several values for one entry are separate records, joined by “and”; a condition that tells them apart may be missing. Equal values may be shown once.
Experiments:
[1] = Pharmacokinetic evaluation after intravenous injection or intragastric administration, plasma LC-MS/MS; type: in vivo, SD rats
Text: After the compounds were given to SD rats by intravenous injection or intragastric administration, concentrations of related compounds in plasma were detected by an LC-MS/MS method, and pharmacokinetics and absolute bioavailability of the compounds prepared in Embodiments 13 and 14 in the rats were preliminarily evaluated.
2. Line: Sprague Dawley rats, sex: male, weight: 200 g to 250 g
Pharmacokinetic characteristics of rodents after intravenous injection and oral administration of the compounds were tested by a standard scheme. In the experiment, a candidate compound was prepared into a clear solution, and given to the rats by single intravenous injection and intragastric administration. A solvent for intravenous injection was a certain proportion of N,N-dimethylacetamide (DMA) and 10% Solutol HS15 solution, and a solvent for oral administration was a certain proportion of sodium carboxymethyl cellulose (CMC) suspension. 5 minutes, 15 minutes, 30 minutes, 1 hour, 2 hours, 4 hours, 6 hours, 8 hours, 10 hours and 24 hours after drug administration, blood samples of the animals were respectively collected into K2EDTA anticoagulation tubes, which were temporarily stored on ice until centrifugation.

[2] = system: EPO (erythropoietin); assay: Pharmacological evaluation: influence of continuous administration on EPO level; type: in vivo, SD rats
Experimental: This experiment was intended to evaluate an influence of continuous administration of the compounds prepared in Embodiments 12, 13 and 14 on EPO (erythropoietin) in SD rats.
• Line: SD (Sprague Dawley) • Weeks of age and weight: 8 weeks, weight 200 g to 220 g • Sex: male • Animal source: Beijing Vital River Laboratory Animal Technology Co., Ltd.
• Positive drug: Enarodustat • Description: commercialized drugs approved for marketing in Japan • Specification and content: 2 mg JTZ-951(Enarodustat), 140 capsules/box
After a week of adaptive feeding, SD rats were randomly divided into 3 groups, 6 rats in each group, which were namely a blank group, a positive drug group (Enarodustat) and a group of compound in Embodiment 12. An Enarodustat tablet was crushed by a mortar, then quantitatively added with 0.5% methyl cellulose, and magnetically stirred and mixed evenly; and the compound prepared in Embodiment 12 was weighed, then quantitatively added with 0.5% methyl cellulose, and magnetically stirred and mixed evenly. […] The drug was given once a day for 14 consecutive days, and blood was taken to measure an EPO level 4 hours after the drug was given on the 14th day.

[3] = Subacute toxicity test, 14 consecutive days; type: in vivo; settings: SD rats, 10 mg/kg once a day for 14 consecutive days, in words
Text: A proper amount of the compound in Embodiment 13 and a proper amount of the compound in Embodiment 14 were weighed by a balance and respectively placed into proper glass bottles, then DMSO, Solutol HS-15 and 0.9% physiological saline (in a ratio of v: v: v = 5%: 10%: 85%) were sequentially added into the glass bottles, and vortexed and stirred, and a drug dissolution condition was continuously concerned in the stirring process until the compounds were completely dissolved/suspended. Finally, drug solutions of the compound in Embodiment 13 and the compound in Embodiment 14 with a concentration of 0.67 mg/mL were prepared for current use.
An animal room was well ventilated, equipped with an air-conditioner, kept at a temperature of 20°C and 25°C and a humidity of 40% to 70%, and in light and dark conditions for 12 hours respectively, and the animals could eat and drink freely. SD rats with good physical signs could be selected for this experiment after being adaptively fed for at least 3 days before administration. Table 23 Source and number of experimental animals
Any operation on the experimental animals in this experiment met the requirements of the "Regulations for the Administration of Affairs Concerning Experimental Animals" issued by the Ministry of Science and Technology of the People's Republic of China. In this experiment, a solvent control group, an administration group of compound in Embodiment 13 and an administration group of compound in Embodiment 14 were set up. Administration dosages of the administration group of compound in Embodiment 13 and the administration group of compound in Embodiment 14 were (10 mg/kg) once a day for 14 consecutive days, while the same amount of blank solvent was given to the blank control group, and administration volumes were all 15 mL/kg. After each administration, symptoms and degrees of toxic reaction of the animals were observed. Recovery observation was carried out for 7 days after the last administration. […]
During the experiment, experimenters and veterinarians should observe physical signs and health conditions of the experimental animals continuously. Any abnormal manifestations of the animals, such as pain, depression and decreased activity should be recorded in original records of the experiment. […]
During the experiment, all animals were observed beside cages at least twice a day, and observed continuously for 2 hours after the drug administration. During the drug administration, if the animals had serious side effects or died, observation results should be recorded in a corresponding form. […]
The animals should be weighed before daily drug administration for 14 consecutive days, and the weights were recorded in a corresponding form. Food intakes of the experimental animals were detected during the experiment. […]

[4] = SD rats, in words, compared with Enarodustat in the table

Q: With `O=C(O)CNC(=O)c1c(O)cc(C2CCc3ccccc3C2)n2ncnc12` (single isomer, unassigned) [Compound in Embodiment 13, [(7-hydroxy-5-(1,2,3,4-tetrahydronaphthalene-2-yl)-[1,2,4]triazolo[1,5-a]pyridine-8-carbonyl)amino]acetic acid] as the compound, how does the half-lives [1, 4] read?
A: obviously longer

Q: What about the in-vivo exposure [1, 4] of the same compound?
A: higher

Q: What about the AUC ([1]; male, Sprague-Dawley, rat, plasma, male SD rats, route and dose not given, read-out: Concentration integral AUC) of the same compound?
A: 19100 ng·h/mL

Q: And the half-life ([1]; male, Sprague-Dawley, rat, plasma, male SD rats, route and dose not given, read-out: Half-life period T1/2 (converted))?
A: 2.02 h

Q: And the bioavailability ([1]; male, Sprague-Dawley, rat, plasma, oral, male SD rats, intragastric vs intravenous, read-out: Bioavailability F)?
A: 29.4%

Q: What about the “EPO levels in serum of the rats” value ([2]; after 14 days of administration, in words) of the same compound?
A: increased significantly

Q: And the “EPO levels in plasma of the rats” value ([2]; after administration, compared with the group of positive drug Enarodustat, in words)?
A: significantly higher

Q: And the “EPO level after 14 days of administration” value ([2]; individual rats 1-6, 0.3 mg/mL, 10 mL/kg, once a day for 14 consecutive days, blood 4 hours after the drug on the 14th day, 2904.6 pg/mL was an upper limit of measurement)?
A: ≥ 2904.6 pg/mL (3×) and 2697.4 pg/mL and 2658.5 pg/mL and 2772.1 pg/mL

Q: And the “EPO level after 14 days of administration, Mean” value ([2]; mean of 6 rats, 0.3 mg/mL, 10 mL/kg, once a day for 14 consecutive days, blood 4 hours after the drug on the 14th day, 2904.6 pg/mL was an upper limit of measurement)?
A: 2807.0 pg/mL

Q: And the toxicities ([3]; compared with Enarodustat)?
A: lower than that of Enarodustat

Q: And the gastrointestinal findings [3]?
A: no obvious gastrointestinal necrosis, and bleeding spots or flatulence in a black stomach part
